In patent US20080181875A1, “USE OF CYCLOPHILIN AS ANTIOXIDANT AND PREVENTION OF CYCLOSPORIN A-INDUCED TOXICITY IN CELL TRANSPLANTATION BY OVEREXPRESSION OF CYCLOPHILIN” (priority 2002, published 2008):
Structures can show the parent of a compound that is named as a salt.

How the values were obtained:
[1] = test system: H9c2 myoblasts; test: Effect of antioxidants on muscle differentiation (morphology); assay type: cell-based, rat; conditions: 5 days in DM; 0.4 mM DFOM, 2000 units/ml catalase, 10 mM Tiron
Protocol: H9c2 myoblasts were cultured for 5 days in DM containing 0.4 mM of DFOM, 2000 units/ml of catalase, 10 mM of Tiron (4,5-dihydroxy-1,3-benzene-disulfonic acid) to induce differentiation, during which morphological changes were observed. The control is the myoblasts which were induced to differentiate in the absence of […].

[2] = test system: mitochondria membrane potential; test: Mitochondria membrane potential by DiOC6[3] flow cytometry; assay type: cell-based; conditions: 48 hours in DM; 1-10 μM CsA, 9 μM FK506, 200 nM ascomycin
Protocol: H9c2 myoblasts cultured in PM and in DM in the absence of the drugs were measured for Δψm (control). In the FACS plots of FIG. 6b, the second peaks and the first peaks represent viable cells with high DiOC6[3] contents and dead cells with DiOC6[3]. Numerals mean percentages of the myoblasts with decreased Δψm.

[3] = test system: H9c2 cardiac myoblasts; test: Cell cycle and apoptosis (sub-G0/G1) by propidium iodide FACS; assay type: cell-based, rat; conditions: DM 72 h
From the text: Using 20,000 cells obtained from each of the cultures, measurements were made of percentages of cells in each phase of the cell cycle (G0/G1, S and G2/M) and percentages of cells in sub-G0/G1 aliquots (that is, apoptotic cells).

[4] = test system: H9c2 rat cardiac myoblasts; test: Morphological observation of muscle differentiation of myoblasts in DM; assay type: cell-based; conditions: 72 hours in DM
Protocol: As a control, myoblasts were cultured in the absence of the drugs. Before use, the myoblasts were cultured to a cell confluency of about 70%.

[5] = test system: Bax; test: Western blot of apoptosis-accelerating protein Bax; assay type: cell-based, rat; conditions: DM; 1-10 μM CsA, 9 μM FK506, 200 nM ascomycin
From the text: The results are shown in the upper part of FIG. 6a. β-actin is used as a loading control.
After being scanned, the Western blot analysis bands were quantified by Bio-Rad imaging densitometer. The results are shown in the lower part of FIG. 6a. In the histograms, the bars express the Bax levels of the samples as mean±standard deviation values of the fold numbers compared to those of the control.

[6] = test system: myogenin and MRF4; test: Western blot of myogenic markers myogenin and MRF4; assay type: cell-based, rat; conditions: FK506, ascomycin in DM
Protocol: In addition, the protein expression levels of the myogenin and MRF4, early and late myogenic markers, were determined by Western blot analysis. To this end, myoblast extracts treated with the drugs were separated on SDS-PAGE and transferred onto a nitrocellulose membrane which was then blocked and reacted with predetermined primary antibodies (polyclonal myogenic antibody and polyclonal MRF4 antibody (Santa Cruz, Calif., USA) and then with a secondary antibody (anti-rabbit IgG-HRP conjugate with a chemiluminescent reactive enzyme able to detect the primary antibodies) (Santa Cruz, Calif., USA). Finally, the specimens were detected by enhanced ECL-plus chemiluminescence (Amersham Pharmacia Biotech, Piscataway, N.J., USA). Non-myogenic β-actin protein was used as a loading control.

[7] = test system: H9c2 myoblasts; test: Apoptosis by in-situ TUNEL assay and DNA fragmentation analysis; assay type: cell-based, rat; conditions: 72 hours in DM
Protocol: TUNEL analysis was performed using ApopTag Flurescein In situ Apoptosis Detection kit (Intergen, Purchase, N.Y.). The results are given in FIG. 2c where arrows indicate TUNEL positive cells.
Once cells undergo apoptosis, the DNA is digested into fragments diferring by 180-200 bp by endonuclease. […] DNA fragmentation aiming to identify the DNA laddering pattern was performed as follows. […] The cell lysates thus obtained were treated with 50 μg/ml RNase A at 37° C. for 2 hours and then with 500 μg/ml proteinase K at 55° C. for 2 hours. DNA was extracted by a phenol/chloroform method and precipitated in 70% (v/v) isopropanol. After being centrifuged at 15,000 rpm for 15 min, the precipitates were dissolved in a TE buffer (10 mM Tris-HCl (pH 8.0), 1 mM EDTA).

[8] = test system: transplanted myoblasts; conditions: cited from earlier work
[9] = test system: calcineurin; test: Calcineurin phosphatase activity in H9c2 myoblasts (BioMol Quantizyme assay); conditions: for influence on basal calcineurin phosphatase activity / concentration at which maximal inhibitory effect on the increased calcineurin phosphatase activity was observed: H9c2 myoblasts; for inhibition of calcineurin phosphatase activity induced during muscle differentiation: H9c2 myoblasts in DM; for concentration at which maximal inhibitory effect on the increased calcineurin phosphatase activity was observed: activity induced by DM (2 days) and PE (12 h)
[10] = test system: H9c2 myoblasts; test: Survival and morphology of CypA-transfected cells exposed to CsA or H2O2; assay type: cell-based, rat; conditions: 10 μM CsA 72 h in DM; for protection from CsA- or H2O2-induced apoptotic cell death: 300 μM H2O2 12 h in DMEM/F-12
Protocol: Separately, the cells were exposed to 300 μM H2O2 for 12 hours in DMEM/F-12. […] Here, % cell survival is obtained by dividing […].

[11] = test system: H9c2 myoblasts; test: Muscle differentiation of CypA-transfected cells in DM (morphology, time required); assay type: cell-based, rat; conditions: for muscle differentiation in DM: transfected H9c2 cells, no CsA; for time required for muscle differentiation: transfected H9c2 cells in DM, mock control 4-5 days
Protocol: To determine the role of CypA, that is, PPIase, in muscle differentiation, time periods required for the complete differentiation of the three CypA gene-transfected cells, CypA/wt, CypA/W121F and CypA/R55A were measured while they were cultured in DM. In addition, their morphological changes were observed when they were completely differentiated.

[12] = test system: Bax; test: Bax expression in CypA-transfected cells exposed to CsA or H2O2 (Western blot); assay type: cell-based, rat; conditions: exposed to CsA; similar results with H2O2
From the text: In the histograms of FIG. 7f, bars express the Bax levels in the samples as percentages compared to the mock-transfected cells.

[13] = test system: PPIase activity; conditions: cited from earlier work
[14] = test system: ROS; test: ROS content of CypA-transfected cells in DM with or without CsA (DCF FACS); assay type: cell-based, rat; conditions: DM containing no CsA or 10 μM CsA
Protocol: These transfected cells were grown at 37° C. in the presence of 10 μM DCF, washed with PBS, resuspended in […] of PBS, and measured for ROS content by FACS analysis.

## CC(=O)N(O)CCCCCNC(=O)CCC(=O)N(O)CCCCCNC(=O)CCC(=O)N(O)CCCCCN [DFOM, deferoxamine mesylate]
[1]
  effect on muscle differentiation: blocking activity

## C=CC[C@@H]1/C=C(\C)C[C@H](C)C[C@H](OC)[C@H]2O[C@@](O)(C(=O)C(=O)N3CCCC[C@H]3C(=O)O[C@H](/C(C)=C/[C@@H]3CC[C@@H](O)[C@H](OC)C3)[C@H](C)[C@@H](O)CC1=O)[C@H](C)C[C@@H]2OC [FK506, tacrolimus]
[2]
  mitochondria membrane potential (Δψm): not observed
[3]; FK506 9 μM
  % Apoptosis (sub-G0/G1 fraction): 11 ± 3%
  % G0/G1: 83 ± 5%
  % G2/M: 4 ± 1%
  % S: 4 ± 1%
[4]
  morphological changes during muscle differentiation: no morphological differences
[5]
  Bax expression: do not affect
[6]
  myogenin and MRF4 protein expression: no influence
[7]
  apoptosis (TUNEL, DNA laddering): not related to apoptosis
[8]; clinical trials and animal model studies
  success rate of myoblast transplantation: ≥ 95%
[9]
  influence on basal calcineurin phosphatase activity: no influence
  inhibition of calcineurin phosphatase activity induced during muscle differentiation: completely inhibit
  concentration at which maximal inhibitory effect on the increased calcineurin phosphatase activity was observed: 1 µM

## O=S(=O)(O)c1cc(O)c(O)c(S(=O)(=O)O)c1 [Tiron, 4,5-dihydroxy-1,3-benzene-disulfonic acid]
[1]
  effect on muscle differentiation: blocking activity

## CC[C@@H]1/C=C(\C)C[C@H](C)C[C@H](OC)[C@H]2O[C@@](O)(C(=O)C(=O)N3CCCC[C@H]3C(=O)O[C@H](/C(C)=C/[C@@H]3CC[C@@H](O)[C@H](OC)C3)[C@H](C)[C@@H](O)CC1=O)[C@H](C)C[C@@H]2OC [ascomycin]
[2]
  mitochondria membrane potential (Δψm): not observed
[3]; Ascomycin 200 nM
  % Apoptosis (sub-G0/G1 fraction): 10 ± 3%
  % G0/G1: 85 ± 3%
  % G2/M: 4 ± 1%
  % S: 2 ± 1%
[4]
  morphological changes during muscle differentiation: no morphological differences
[5]
  Bax expression: do not affect
[6]
  myogenin and MRF4 protein expression: no influence
[7]
  apoptosis (TUNEL, DNA laddering): not related to apoptosis
[9]
  influence on basal calcineurin phosphatase activity: no influence
  inhibition of calcineurin phosphatase activity induced during muscle differentiation: completely inhibit
  concentration at which maximal inhibitory effect on the increased calcineurin phosphatase activity was observed: 0.02 µM

## O=P1(N(CCCl)CCCl)NCCCO1 (centres unmarked) [cyclophosphamide]
[8]; in vivo
  success of allogenic myoblast transplantation: did not increase the survival

## CypA/R55A: mutated rat CypA with alanine instead of arginine at position 55, transfected into H9c2 myoblasts
[10]
  protection from CsA- or H2O2-induced apoptotic cell death: increases ROS-induced apoptosis
[11]
  muscle differentiation in DM: no traces of differentiation
[12]
  Bax expression: increased Bax expression
[13]
  PPIase activity compared to the wild type protein: one thousandth
[14]
  ROS level: significantly increased ROS generation

## CypA/W121F: mutated rat CypA with phenylalanine instead of tryptophan at position 121, transfected into H9c2 myoblasts
[10]
  protection from differentiation blockage: not from differentiation blockage
  protection from CsA- or H2O2-induced apoptotic cell death: protect cells
[11]
  time required for muscle differentiation: 14 to 15 days
  muscle differentiation in DM: undergo muscle differentiation
[12]
  Bax expression: inhibited Bax expression
[13]
  PPIase activity compared to the wild type protein: half
[14]
  ROS level: removed a greater amount of ROS than did CypA/wt

## CypA/wt: wild type rat brain CypA gene transfected into and overexpressed in H9c2 rat cardiac myoblasts
[10]
  protection from differentiation blockage: not from differentiation blockage
  protection from CsA- or H2O2-induced apoptotic cell death: protect cells
[11]
  time required for muscle differentiation: 8 to 9 days
  muscle differentiation in DM: undergo muscle differentiation
[12]
  Bax expression: inhibited Bax expression
[14]
  ROS level: reduced the ROS level

B1: catalase: antioxidant enzyme purchased from Sigma (protein, UniProt P00432 2-527, looked up)
Catalase: ADNRDPASDQMKHWKEQRAAQKPDVLTTGGGNPVGDKLNSLTVGPRGPLLVQDVVFTDEMAHFDRERIPERVVHAKGAGAFGYFEVTHDITRYSKAKVFEHIGKRTPIAVRFSTVAGESGSADTVRDPRGFAVKFYTEDGNWDLVGNNTPIFFIRDALLFPSFIHSQKRNPQTHLKDPDMVWDFWSLRPESLHQVSFLFSDRGIPDGHRHMNGYGSHTFKLVNANGEAVYCKFHYKTDQGIKNLSVEDAARLAHEDPDYGLRDLFNAIATGNYPSWTLYIQVMTFSEAEIFPFNPFDLTKVWPHGDYPLIPVGKLVLNRNPVNYFAEVEQLAFDPSNMPPGIEPSPDKMLQGRLFAYPDTHRHRLGPNYLQIPVNCPYRARVANYQRDGPMCMMDNQGGAPNYYPNSFSAPEHQPSALEHRTHFSGDVQRFNSANDDNVTQVRTFYLKVLNEEQRKRLCENIAGHLKDAQLFIQKKAVKNFSDVHPEYGSRIQALLDKYNEEKPKNAVHTYVQHGSHLSAREKANL
[1]
  effect on muscle differentiation: blocking activity
